Test results published in patent US11045480B2, “Anti-huLRRC15 antibody drug conjugates and methods for their use” (AbbVie Inc., priority 2015, dated 2021).

Legend:
Assay type in all cases: in vivo, mouse
[1] = tested on: PANC1 (pancreatic) xenograft; assay: PANC1 xenograft tumor growth
Experimental: (§1) In FIG. 20E, PANC1 pancreatic cancer cells (10 million) were implanted subcutaneously into SCID mice, and mice were randomized when the tumors reached ˜125 mm^3 and dosed with biologics at 12 mg/kg intraperitoneally on a Q4D×6 (one dose given every 4 days for a total of 6 doses), while gemcitabine was dosed intraperitoneally at 100 mg/kg Q3D×4) (one dose given every three days for 4 doses total).

[2] = tested on: EBC-1 tumors; assay: Ex vivo analysis (flow cytometry, microscopy, IHC) of treated EBC-1 tumors
Experimental: For the experiments, 5 million EBC-1 cells grown in vitro were implanted per mouse into the right flank of SCID-beige mice. Tumors were size-matched at ˜300 mm^3 and treated on day 0 and day 4 with 6 mg/kg intraperitoneally for each biologic drug shown in FIG. 15A. Tumors were harvested from the mice in each group 11 days post randomization and start of treatment. Tumors were dissociated into single cell suspensions using Miltenyi Biotec gentleMACS Dissociator according to the manufacturer's guidelines for the dissociation of tough tumors. Dissociated tumor cells were passed through a 70 μm filter, counted, and immediately used for flow cytometry. Single-cell suspensions were resuspended in PBS with 10% FBS and 10 μg/mL FcR block (anti-mouse CD16/CD32, clone 93, eBioscience, Cat. #16-0161.) The following directly conjugated antibodies were used for flow cytometry: human IgG1 κ isotype control (AB095) AF647, anti-huLRRC15 (hu208.4.1a.1a) AF647, anti-FAP (huFAP MAB5) AF647, mouse anti-human CD326 (EPCAM) PE (clone 1B7, eBioscience, Cat. #12-9326), anti-mouse CD11b PE (clone M1/70, eBioscience, Cat. #12-0112), anti mouse CD11c PE (clone N418, eBioscience, Cat. #12-0114), and anti-mouse F4/80 PE (clone BM9, eBioscience, Cat. #12-4801). Ex vivo EBC1 tumor cell suspensions were incubated with fluor-conjugated antibodies for 20 minutes on ice and washed twice using PBS with 1% FBS. Flow cytometry data were collected using a Becton Dickinson FacsCalibur, and data were analyzed using FlowJo™ analysis software (TreeStar). The ex vivo flow cytometry data (FIGS. 15B-15E) are shown as a percentage of cells gated positive for each antigen relative to total live cells gated via FSC/SCC. It should be noted that percentages reported are relative values to the total ex vivo EBC1 tumor and that a reduction in one cell population (e.g., EPCAM positive cancer cells) would result in an inverse increase in remaining cell populations when this analysis method is used.
Dissociated single-cell suspensions of the ex vivo EBC1 tumors shown in FIG. 15A were seeded at 120,000 live cells into tissue culture microscopy chamber slides. Cells were allowed to sit and incubate for 48 hours, and then fixed in 2% paraformaldehyde for 15 min at 37° C. The cells were washed with PBS and permeabilized using 0.3% Triton-X in PBS at 37° C. for 30 min. Cells were washed with PBS and blocked in 5% BSA for 30 min at 37° C. Cells were incubated with anti-α-SMA (clone 1A4 DAKO, Cat. #36962) and then detected with AlexaFluor AF594 (Life Technologies, Cat. #A21203) secondary antibody (2 μg/mL) for 30 min at 37° C. Subsequently, cells were stained using anti-human EpCAM-AF488 (Cell Signaling Technology, Cat. #5198) and washed 3× in PBS. Finally the slides were removed from the chambers and mounted with a coverslip using ProLong Diamond Anti-Fade with DAPI (Life Technologies, Cat. #36962). Image acquisition was performed using Zeiss Axiovision Software on a Zeiss Axiovert 200M inverted fluorescent microscope. Statistical differences between groups were determined using unpaired T tests in GraphPad Prism™. […] The percentage of pHH3 positive cells decreased with additional dosing and longer time (FIG. 15H) correlating with cancer cell death and tumor shrinkage (FIG. 15A).

[3] = tested on: EBC-1 (human squamous NSCLC) xenograft; assay: EBC-1 xenograft tumor growth; conditions: EBC-1, SCID/Beige mice; huM25-vcMMAE-E2 at 3 mg/kg (method: biologics 6 mg/kg IP Q7D×2); method: gemcitabine 100 mg/kg IP Q3D×3, result sentence names docetaxel (FIG. 21B)
[4] = tested on: SCC-15 head and neck cancer xenograft; assay: SCC-15 xenograft tumor growth; conditions: for TGD, single agent / TGImax, single agent: SCC-15, SCID mice
Experimental: Radiation is a commonly used cytotoxic therapy in oncology. […] SCC-15 head and neck cancer cells (1 million) were implanted subcutaneously into SCID mice, and mice were randomized when the tumors reached ˜200 mm^3 and dosed with biologics at 12 mg/kg intraperitoneally on a Q4D×6 (one dose given every 4 days for a total of 6 doses), while the radiation was directed at the tumor with a single radiation dose of 15 Gy on day 0.
SCC-15 head and neck cancer cells (1 million) were implanted subcutaneously into SCID mice, and mice were randomized when the tumors reached ˜200 mm^3 and dosed with biologics at 12 mg/kg intraperitoneally on a Q7D×6 (one dose given every 7 days for a total of 6 doses), while carboplatin was dosed intraperitoneally […] at 50 mg/kg Q4D×4 (one dose given every 4 days for a total of 4 doses).

[5] = tested on: HPAF-II (human pancreatic) xenograft; assay: HPAF-II xenograft tumor growth
Experimental: For the experiment, 1 million cells (HPAF-II) that were grown in vitro were inoculated subcutaneously per mouse into the right flank of female SCID-Beige mice. Tumors were size matched at ˜200 mm^3, and dosed intraperitoneally (IP) Q4D×6 (1 dose given every 4 days for a total of 6 doses) as shown in FIG. 13B.
as §1, with “21A, HPAF-II” for “20E, PANC1”, “(1” for “(10”, “˜200” for “˜125”, “6” for “12”, “(Q3D×4)×2” for “Q3D×4)”, “per cycle, 2 cycles with 8 total doses given).” for “total).”

[6] = EBC-1 tumors, 6 mg/kg IP day 0 and 4, harvested day 11 (FIG. 15F)
[7] = biologics 12 mg/kg IP Q4D×6 (FIG. 21D)
[8] = biologics 12 mg/kg IP Q7D×6, carboplatin 50 mg/kg IP Q4D×4 (FIG. 21E)
[9] = SCC-15, ADC 12 mg/kg IP Q4D×6 plus single radiation dose of 15 Gy on day 0 (FIG. 21D)
[10] = SCC-15, ADC 12 mg/kg IP Q7D×6 plus carboplatin 50 mg/kg IP Q4D×4 (FIG. 21E)
[11] = ADC 6 mg/kg IP Q4D×6 plus gemcitabine 100 mg/kg IP (Q3D×4)×2 (FIG. 21A)
[12] = SCID mice, biologics 6 mg/kg IP Q4D×6, gemcitabine 100 mg/kg IP (Q3D×4)×2 (FIG. 21A)
[13] = SCID-Beige mice, 6 mg/kg IP Q4D×6 (FIG. 13B)

huM25-vcMMAE-E2: huM25 conjugated with maleimidocaproyl val-cit PABA MMAE, preparation enriched in DAR2 by HIC
TGImax ([1]; PANC1 (3+ huLRRC15 stromal positive, cancer negative) tumor model (FIG. 17B)): 94.4% | TGImax ([1]; PANC1, SCID mice, biologics 12 mg/kg IP Q4D×6, gemcitabine 100 mg/kg IP Q3D×4 (FIG. 20E)): 94% | cancer cells in ex vivo tumor (microscopy count) [2, 6]: significant decrease | fibroblast population in ex vivo tumor [2, 6]: continued to persist | phosphohistone H3 (pHH3) staining, mitotic figures ([2]; EBC-1 tumors, 6 mg/kg, after 72 hours (FIG. 15G)): higher number of mitotic figures | staining for CD45 and F4/80 ([2]; EBC-1 tumors, day 11 post-treatment, 6 mg/kg, compared with isotype ADC (FIG. 15I)): enhanced staining | immune infiltrate (CD11c or F4/80 positive cells) ([2]; ex vivo flow cytometry of EBC-1 tumors post treatment (FIGS. 15D-15E)): increase in immune infiltrate | TGImax, single agent [3]: 91% | TGD, single agent [4, 7]: 44% | TGImax, single agent [4, 7]: 58% | TGD, single agent [4, 8]: 44% | TGImax, single agent [4, 8]: 58% | TGD, used adjunctively with radiation [4, 9]: 219% | TGImax, used adjunctively with radiation [4, 9]: 90% | TGD, used adjunctively with carboplatin [4, 10]: 83% | TGImax, used adjunctively with carboplatin [4, 10]: 86% | TGD, used adjunctively with gemcitabine [5, 11]: 183% | TGImax, used adjunctively with gemcitabine [5, 11]: 85% | TGD, single agent [5, 12]: 57% | TGImax, single agent [5, 12]: 57% | TGImax [5, 13]: 76% | tumor growth delay [5, 13]: 133%
